Source: PMC10146186, “Modulation of the Cytotoxic Properties of Pd(II) Complexes Based on Functionalized Carboxamides Featuring Labile Phosphoryl Coordination Sites” (Pharmaceutics, 2023)
Like-named read-outs stand apart in the source and are kept apart here.

Columns and labels:
[1] = system: HBL100/Dox doxorubicin-resistant mammary epithelial cells; test: MTT cytotoxicity assay, HBL100/Dox; format: cell-based, human; conditions: for IC50: MTT, 48 h exposure, read-out: IC50 ± SD, HBL100/Dox
Protocol: (§1) To characterize the antitumor potential of the resulting Pd(II) pincer complexes, their cytotoxicities against a panel of human solid and hematopoietic cancer cell lines, including colorectal carcinoma (HCT116), breast cancer (MCF7), prostate adenocarcinoma (PC3), glioblastoma (U251), ovarian adenocarcinoma (Scov3), chronic myelogenous leukemia (K562) and its resistant subclone (K562/iS9), multiple plasmacytoma (AMO1), and acute lymphoblastic leukemia (H9) cell lineages, were evaluated using the conventional MTT assay. […] For comparison, the inhibitory effects of the compounds explored on noncancerous human embryonic kidney cells HEK293 as well as transformed breast cells HBL100 and their doxorubicin-resistant analogs HBL100/Dox were also investigated under the same conditions.
(§2) The cytotoxic activity of the compounds explored was investigated on human colorectal carcinoma (HCT116), breast cancer (MCF7), prostate adenocarcinoma (PC3), glioblastoma (U251), ovarian adenocarcinoma (Scov3), chronic myelogenous leukemia (K562 and K562/iS9), multiple plasmacytoma (AMO1), and acute lymphoblastic leukemia (H9) cell lines, as well as human embryonic kidney (HEK293) and mammary epithelial (HBL100 and HBL100/Dox) cells used as representatives of pseudonormal cells. All cell lines were obtained from American Type Culture Collection (ATCC). RPMI-1640 and DMEM media were obtained from Gibco. Fetal bovine serum (FBS) was purchased from HyClone. Cells were cultured in RPMI-1640 or DMEM media supplemented with 10% FBS and 50 μg/mL gentamicin in a humidified incubator with 5% CO2 atmosphere. The cell growth inhibitory effects of the compounds were evaluated using the conventional MTT assay (ICN Biomedicals, Eschwege, Germany). Cells were seeded in triplicate at a cell density of 5 × 10^3/well in 96-well plates in 100 µL complete medium and preincubated for 24 h. The tested compounds were initially dissolved in DMSO. Then, the compounds at various concentrations were added to the media. The well plates were incubated for 48 h followed by addition of MTT solution (Sigma, Darmstadt, Germany) (20 μL, 5 mg/mL). The cells were incubated at 37 °C for further 3 h; then the culture medium was removed, and formazan crystals were dissolved in DMSO (70 μL). The absorbance of the resulting solutions was measured on a multi-well plate reader (Multiskan FC, Thermo scientific) at 530 nm to determine the percentage of surviving cells. The reported values of IC50 are the averages of three independent experiments (Table 2 and Table 3). Cisplatin (in the initial form of an infusion concentrate in natural saline solution) from a commercial source was used as the reference.

[2] = 31P NMR stability study in CDCl3–(CD3)2SO mixture; format: physicochemical; conditions: commensurable decomposition degree reached only in a week
Protocol: (§3) The observed dependences correlate well with our previous findings on the lability of the phosphoryl sites in palladocycles 2a,b, 3a,b and can be rationalized in terms of their coordination behavior. […] However, the presence of an additional competitive chloride anion makes complex 2b potentially more susceptible to decoordination of the phosphoryl arm. […] At least the N,N-bidentately bound core remained intact in the mentioned media over a period of 48 h.

[3] = system: HBL100 mammary epithelial cells; test: MTT cytotoxicity assay, HBL100; format: cell-based, human; conditions: read-out: IC50 ± SD, HBL100
Protocol: as §1, §2

[4] = system: AMO1 multiple plasmacytoma cells; test: MTT cytotoxicity assay, AMO1; format: cell-based, human; conditions: for IC50: AMO1, MTT, 48 h exposure, read-out: IC50 ± SD, AMO1
Protocol: as §1, §2

[5] = system: K562 chronic myelogenous leukemia cells; test: MTT cytotoxicity assay, K562; format: cell-based, human; conditions: 48 h exposure, read-out: IC50 ± SD, K562
Protocol: as §1, §2

[6] = system: K562/iS9 resistant chronic myelogenous leukemia cells; test: MTT cytotoxicity assay, K562/iS9; format: cell-based, human; conditions: read-out: IC50 ± SD, K562/iS9
Protocol: as §1, §2

[7] = system: HEK293 embryonic kidney cells; test: MTT cytotoxicity assay, HEK293; format: cell-based, human; conditions: HEK293 noncancerous cells, 48 h exposure, read-out: IC50 ± SD, HEK293
Protocol: as §1, §2

K562 cells = test: MTT assay with complexes preliminarily kept in DMSO–RPMI 1640, K562; format: cell-based, human; conditions: K562, kept in DMSO–RPMI 1640 (1/10 by volume) for 48 h before experiment, 72 h incubation
Protocol: as §3
(§4) Figure S51. Effect of complexes 2b (a) and 3b (b) dissolved either in neat DMSO or DMSO–RPMI 1640 mixture on AMO1 and K562 cells (cell viability was defined by the conventional MTT assay according to the methodology described in the Experimental section with slight modifications: the complexes explored were preliminarily kept in neat DMSO or DMSO–RPMI 1640 mixture for 2 days before the experiments and the following incubation period […]

[8] = system: Scov3 ovarian adenocarcinoma cells; test: MTT cytotoxicity assay, Scov3; format: cell-based, human; conditions: Scov3, MTT, 48 h exposure, read-out: IC50 ± SD, Scov3
Protocol: as §1, §2

[9] = system: PC3 prostate adenocarcinoma cells; test: MTT cytotoxicity assay, PC3; format: cell-based, human; conditions: 48 h exposure, read-out: IC50 ± SD, PC3
Protocol: as §1, §2

AMO1 cells = test: MTT assay with complexes preliminarily kept in DMSO–RPMI 1640, AMO1; format: cell-based, human; conditions: AMO1, kept in DMSO–RPMI 1640 (1/10 by volume) for 48 h before experiment, 72 h incubation
Protocol: as §3, §4

U251 glioblastoma cells = test: MTT cytotoxicity assay, U251; format: cell-based, human; conditions: read-out: IC50 ± SD, U251
Protocol: as §1, §2

[10] = system: HCT116 colorectal carcinoma cells; test: MTT cytotoxicity assay, HCT116; format: cell-based, human; conditions: read-out: IC50 ± SD, HCT116
Protocol: as §1, §2

MCF7 breast cancer cells = test: MTT cytotoxicity assay, MCF7; format: cell-based, human; conditions: for IC50: MCF7, MTT, 48 h exposure, read-out: IC50 ± SD, MCF7
Protocol: as §1, §2

[11] = system: H9 acute lymphoblastic leukemia cells; test: MTT cytotoxicity assay, H9; format: cell-based, human; conditions: 48 h exposure, read-out: IC50 ± SD, H9
Protocol: as §1
as §2, with “Then, the compounds at various concentrations were added to the media. The well plates were incubated for 48 h followed by addition of MTT solution (Sigma, Darmstadt, Germany) (20 μL, 5 mg/mL). The cells were incubated at 37 °C for further 3 h; then the culture medium was removed, and formazan crystals were dissolved in DMSO (70 μL).” left out, “The reported values of IC50 are the averages of three independent experiments (Table 2 and Table 3). Cisplatin (in the initial form of an infusion concentrate in natural saline solution) from a commercial source was used as the reference.” left out

[12] = Solubility and stability in solvents (observation); format: physicochemical; conditions: for stability in DMSO: strongly coordinating media (DMSO)
Source text: To further explore the effect of lability of coordination sites on the biological activity of this type of cyclopalladated complexes, we decided to modify the second arm in the O,N,N-ligand framework, specifically the ancillary N-donor group, replacing the pyridine unit for a more rigid quinoline moiety. The reaction of [amino(phenyl)methyl]diphenylphosphine oxide hydrochloride with in situ generated quinoline-2-carboxylic acid chloride smoothly furnished functionalized amide 4, which, in turn, readily underwent direct cyclopalladation, affording Pd(II) pincer complex 5 (Scheme 4). The molecular structure of this palladocycle is presented in Figure 4, while its main geometric parameters are listed in Table S1 in the SI. Unfortunately, complex 5 appeared to be insoluble in common organic solvents and unstable in strongly coordinating media (e.g., DMSO); a possible reason for the stability issues is its highly constrained structure. Therefore, it was withdrawn from the cytotoxicity studies.
A solution of PdCl2(NCPh)2 (70 mg, 0.182 mmol) in CH2Cl2 (4 mL) was added dropwise to a solution of ligand 4 (84 mg, 0.182 mmol) and Et3N (26 μL, 0.186 mmol) in CH2Cl2 (6 mL). The reaction mixture was left under ambient conditions for 1 day and then filtered through a pad of cotton. The filtrate was evaporated to dryness. The resulting residue was washed with Et2O and purified by column chromatography on silica gel (eluent: CHCl3–EtOH (25:1)) to give 60 mg of the target pincer complex as a yellow crystalline solid. Yield: 55%. Mp: >175 °C (dec.). ^31P{^1H} NMR (161.98 MHz, CH2Cl2/D2O): δ 72.32 ppm (the ^1H and ^13C{^1H} NMR spectroscopic data for complex 5 were not obtained due to its low solubility in common organic solvents (e.g., chlorinated hydrocarbons and acetonitrile) and instability in strongly coordinating media (e.g., DMSO)). IR (KBr, ν/cm^–1): 521(w), 534(w), 561(s), 586(w), 699(m), 725(w), 766(w), 852(w), 927(vw), 998(w), 1024(m), 1042(m), 1121(m) (νP=O), 1154(w), 1341(w), 1378(br, m), 1437(m), 1461(w), 1493(w), 1516(w), 1560(w), 1595(w), 1633(s) (νC=O), 2923(vw), 3064(w). […]

O=C(c1ccccn1)[N]([Pd][Cl])C(c1ccccc1)P(=O)(c1ccccc1)c1ccccc1 (stereo not drawn) [complex 3b, [κ^3-O,N,N-(L)Pd(II)Cl]]
IC50 [1]: 28 ± 2.6 µM | stability in CDCl3–(CD3)2SO mixture [2]: quite stable | IC50 ([3]; 48 h exposure): 17.8 ± 0.8 µM | IC50 [4]: 2.7 ± 0.5 µM | IC50 [5]: 6.4 ± 0.4 µM | IC50 ([6]; 48 h exposure): 7.2 ± 1 µM | IC50 [7]: 12.5 ± 3.5 µM | cytotoxic activity after keeping in DMSO–RPMI 1640 mixture vs neat DMSO (K562 cells): comparable | IC50 [8]: 40 ± 0.6 µM | IC50 [9]: 16 ± 2 µM | cytotoxic activity after keeping in DMSO–RPMI 1640 mixture vs neat DMSO (AMO1 cells): comparable | IC50 (U251 glioblastoma cells; 48 h exposure): 43 ± 5 µM | IC50 ([10]; 48 h exposure): 4 ± 2 µM | IC50 (MCF7 breast cancer cells): 13 ± 1.5 µM | IC50 [11]: 3.2 ± 0.2 µM

O=C(NCP(=O)(c1ccccc1)c1ccccc1)c1ccccn1 [ligand 1a, N-[(Diphenylphosphoryl)methyl]picolinamide]
percentage of live cells ([1]; compound concentration 100.0 μM, 48 h): 35% ^3 | IC50 ([3]; Homo sapiens, HBL-100, 48 h exposure): > 100 µM | percentage of live cells ([4]; AMO1, compound concentration 80.0 μM, 48 h): 41% ^3 | IC50 ([5]; Homo sapiens): > 80 µM | IC50 ([6]; Homo sapiens, K562i/S9, 48 h exposure): > 80 µM | IC50 ([7]; Homo sapiens): > 100 µM | IC50 ([8]; Homo sapiens): > 100 µM | IC50 ([9]; Homo sapiens): > 100 µM | IC50 (U251 glioblastoma cells; Homo sapiens, U-251, 48 h exposure): > 100 µM | IC50 ([10]; Homo sapiens, HCT-116, 48 h exposure): > 100 µM | percentage of live cells (MCF7 breast cancer cells; MCF7, compound concentration 100.0 μM, 48 h): 46% ^3 | IC50 ([11]; Homo sapiens): > 80 µM

N.N.[Cl][Pt][Cl] [Cisplatin, reference compound]
IC50 [1]: 23.6 ± 3.6 µM | IC50 ([3]; 48 h exposure): 14.6 ± 3.6 µM | IC50 [4]: 3.2 ± 0.6 µM | IC50 [5]: 15.5 ± 0.5 µM | IC50 ([6]; 48 h exposure): 16 ± 2 µM | IC50 [7]: 12.5 ± 1.5 µM | IC50 [8]: 21 ± 3 µM | IC50 [9]: 16 ± 3 µM | IC50 (U251 glioblastoma cells; 48 h exposure): 16.5 ± 1.5 µM | IC50 ([10]; 48 h exposure): 18 ± 2 µM | IC50 (MCF7 breast cancer cells): 25 ± 4 µM

O=C(c1cccc2cccnc12)[N](CP(=O)(c1ccccc1)c1ccccc1)[Pd][Cl] [complex 7, [κ^3-O,N,N-(L)Pd(II)Cl]]
IC50 [7]: 23 ± 3 µM | IC50 [9]: 52 ± 10 µM | IC50 ([10]; 48 h exposure): 38 ± 6 µM | IC50 (MCF7 breast cancer cells): 58 ± 12 µM | stability in DMSO [12]: stable

O=C(c1ccc2ccccc2n1)[N]([Pd][Cl])C(c1ccccc1)P(=O)(c1ccccc1)c1ccccc1 (stereo not drawn) [complex 5, [κ^3-O,N,N-(L)Pd(II)Cl]]
solubility in common organic solvents ([12]; common organic solvents): insoluble | stability in DMSO [12]: unstable
